What was measured:
EGFR-L858R-T790M-C797S = target: T1, EGFR-L858R-T790M-C797S (Homo sapiens, UniProt P00533, C797S/L858R/T790M); experiment: MaMTH / MaMTH-DS assay, EGFR-L858R-T790M-C797S bait with Shc1 prey; format: cell-based; settings: retest in triplicate, MaMTH signal remaining (low = inhibition)
T1 construct: change the phosphorylation status of full-length EGFR proteins in the context of living cells; expressed in transfected cells

EGFR-WT = target: T2, EGFR-WT (Homo sapiens, UniProt P00533); experiment: MaMTH assay, EGFR-WT bait with Shc1 prey; format: cell-based; settings: for WT > 50% Inhibition / Average Percent: EGFR-WT bait, Shc1 prey; for Average Percent: retest in triplicate, MaMTH signal remaining (low = inhibition)
T2 construct: change the phosphorylation status of full-length EGFR proteins in the context of living cells; expressed in transfected cells

[1] = tested on: reporter cells expressing MET bait; experiment: Viability of reporter cells expressing MET bait; format: cell-based
[2] = tested on: reporter cells expressing FGFR4 bait; experiment: Viability of reporter cells expressing FGFR4 bait; format: cell-based
Experimental: (§1) Cell viability assays. MaMTH stable bait cells or Ba/F3 cells were seeded into 96 well plates at 10,000 cells per well. For MaMTH stable cells, the cells were treated the next day with each inhibitor in a dose-dependent manner in addition to 0.5 ug/mL tetracyline to induce bait expression. For BaF3 cells, the cells were treated with each compound the same day as seeding. After 72 hours of drug treatment, cell viability was measured using the CellTiter-Glo assay (Promega).

[3] = tested on: EGFR and downstream signaling molecules in PC9 EGFR-ex19del-T790M-C797S cells; experiment: EGFR activation and downstream signaling in PC9 EGFR-ex19del-T790M-C797S cells; format: cell-based
EGFR L858R/T790M = target: T3, EGFR L858R/T790M (Homo sapiens, UniProt P00533, L858R/T790M); experiment: MaMTH assay, EGFR L858R/T790M bait with Shc1 prey; format: cell-based
T3 construct: change the phosphorylation status of full-length EGFR proteins in the context of living cells; expressed in transfected cells

[4] = tested on: PC9 EGFR ex19del/T790M/C797S organoids; experiment: Organoid viability, PC9 EGFR ex19del/T790M/C797S organoids; format: cell-based; settings: 72 hours with compound
EGFR ex19del/T790M/C797S = EGFR ex19del/T790M/C797S (Homo sapiens, UniProt P00533, C797S/DEL746-750/T790M); experiment: In vitro kinase assay, EGFR ex19del/T790M/C797S kinase domain; format: biochemical
EGFR ex19del-T790M = experiment: In vitro kinase assay, EGFR ex19del-T790M; format: biochemical
[5] = tested on: PC9 EGFR ex19del/T790M/C797S cells; experiment: Cell viability, PC9 EGFR ex19del/T790M/C797S cells; format: cell-based; settings: for cell viability in combination with compound 5213777: with 50 nM of compound 5213777, 72 hours, compared to alone; for cell viability in combination with Panitumumab: with 10 ug/ml Panitumumab, 72 hours
wild-type EGFR = target: T4, wild-type EGFR (Homo sapiens, UniProt P00533); experiment: In vitro kinase assay, EGFR WT kinase domain; format: biochemical; settings: up to 10 micromolar
T4 construct: recombinant proteins of the kinase domain of wild-type EGFR; purchased Reaction Biology Corporation

EGFR double mutants = experiment: In vitro kinase assay, EGFR double mutants; format: biochemical
CFBE cells = experiment: Caspase 3 and 7 activity, CFBE cells; format: cell-based
[6] = tested on: PC9 EGFR ex19del/T790M/C797S cells; experiment: Caspase 3 and 7 activity, PC9 EGFR ex19del/T790M/C797S cells; format: cell-based
[7] = tested on: Ba/F3 cells expressing EGFR-ex19del-T790M-C797S; experiment: Ba/F3 cell viability (CellTiter-Glo), EGFR-ex19del-T790M-C797S; format: cell-based; settings: for cell viability in combination with anti-EGFR antibody: with 68 nM Cetuximab or 140 nM Panitumumab
[8] = tested on: EGFR and downstream signalling molecules in Ba/F3 EGFR-L858R-T790M-C797S cells; experiment: Western analysis of EGFR and downstream signalling, Ba/F3 EGFR-L858R-T790M-C797S; format: cell-based
[9] = tested on: EGFR and downstream signalling molecules in Ba/F3 EGFR-ex19del-T790M-C797S cells; experiment: Western analysis of EGFR and downstream signalling, Ba/F3 EGFR-ex19del-T790M-C797S; format: cell-based
[10] = tested on: Ba/F3 cells expressing EGFR-L858R-T790M-C797S; experiment: Ba/F3 cell viability (CellTiter-Glo), EGFR-L858R-T790M-C797S; format: cell-based; settings: for cell viability in combination with anti-EGFR antibody: with 68 nM Cetuximab or 140 nM Panitumumab
[11] = tested on: reporter cells expressing AXL bait; experiment: Viability of reporter cells expressing AXL bait; format: cell-based
Experimental: as §1

AXL = target: T5, AXL (Homo sapiens, UniProt P30530); experiment: MaMTH-DS assay, AXL bait with Shc1 prey; format: cell-based
T5 construct: expressed in transfected cells
T5 sequence (P30530 26-894): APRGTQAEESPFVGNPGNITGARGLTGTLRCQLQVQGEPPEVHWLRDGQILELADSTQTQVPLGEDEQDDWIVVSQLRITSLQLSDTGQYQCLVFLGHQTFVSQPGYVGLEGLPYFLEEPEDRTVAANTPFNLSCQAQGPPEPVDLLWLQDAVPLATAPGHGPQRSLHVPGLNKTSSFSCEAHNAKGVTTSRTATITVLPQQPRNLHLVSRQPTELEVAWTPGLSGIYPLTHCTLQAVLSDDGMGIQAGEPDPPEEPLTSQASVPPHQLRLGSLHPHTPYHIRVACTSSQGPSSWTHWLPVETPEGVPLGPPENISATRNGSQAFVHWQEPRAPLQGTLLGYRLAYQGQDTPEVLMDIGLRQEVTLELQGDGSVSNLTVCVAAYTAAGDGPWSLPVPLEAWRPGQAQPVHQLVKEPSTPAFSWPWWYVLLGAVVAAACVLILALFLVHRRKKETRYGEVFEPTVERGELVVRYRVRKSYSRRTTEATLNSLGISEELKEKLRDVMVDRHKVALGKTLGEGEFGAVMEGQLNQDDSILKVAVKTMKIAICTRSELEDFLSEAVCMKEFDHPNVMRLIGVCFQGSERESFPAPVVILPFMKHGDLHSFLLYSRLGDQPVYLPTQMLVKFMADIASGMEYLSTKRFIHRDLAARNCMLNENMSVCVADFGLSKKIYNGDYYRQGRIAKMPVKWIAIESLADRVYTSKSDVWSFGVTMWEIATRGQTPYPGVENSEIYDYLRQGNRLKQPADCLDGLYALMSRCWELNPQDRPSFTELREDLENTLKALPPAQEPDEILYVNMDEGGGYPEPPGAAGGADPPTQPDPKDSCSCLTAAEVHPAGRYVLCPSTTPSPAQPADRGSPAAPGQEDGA
Text: To test MaMTH-DS sensitivity and its potential suitability for use in RTK drug screening, we selected several RTKs whose dysfunction is associated with cancer, and prepared stable MaMTH-DS ‘baits’ in our reporter cell lines. We then performed MaMTH-DS assays in the presence of transfected Shcl functional adapter protein ‘prey’ and small-molecule TKIs, including both control molecules and compounds known to specifically target the function of the corresponding RTKs. First, we examined the response of the RTK MET to the TKIs Crizotinib and Erlotinib using MaMTH-DS.
MaMTH assays. Cells stably expressing bait of interest (EGFR, MET, FGFR4, ALK, AXL) were seeded into 96-well TC-treated plates and grown at 37° C./5% CO2 overnight in DMEM/10% FBS/1% PS to ˜50-60% confluency. Cells were transfected with 50 ng/well of Nub-Shc1 ‘prey’ protein by calcium phosphate precipitation. Five hours after transfection, media was aspirated out and cells were treated with 100 uL of fresh media containing specific compound and 0.5 ug/ml of tetracyline to induce bait expression. After 24 hours, luciferase activity was measured by chemoluminescence.

FGFR4 = target: T6, FGFR4 (Homo sapiens, UniProt P22455); experiment: MaMTH-DS assay, FGFR4 bait with Shc1 prey; format: cell-based
T6 construct: expressed in transfected cells
T6 sequence (P22455 22-802): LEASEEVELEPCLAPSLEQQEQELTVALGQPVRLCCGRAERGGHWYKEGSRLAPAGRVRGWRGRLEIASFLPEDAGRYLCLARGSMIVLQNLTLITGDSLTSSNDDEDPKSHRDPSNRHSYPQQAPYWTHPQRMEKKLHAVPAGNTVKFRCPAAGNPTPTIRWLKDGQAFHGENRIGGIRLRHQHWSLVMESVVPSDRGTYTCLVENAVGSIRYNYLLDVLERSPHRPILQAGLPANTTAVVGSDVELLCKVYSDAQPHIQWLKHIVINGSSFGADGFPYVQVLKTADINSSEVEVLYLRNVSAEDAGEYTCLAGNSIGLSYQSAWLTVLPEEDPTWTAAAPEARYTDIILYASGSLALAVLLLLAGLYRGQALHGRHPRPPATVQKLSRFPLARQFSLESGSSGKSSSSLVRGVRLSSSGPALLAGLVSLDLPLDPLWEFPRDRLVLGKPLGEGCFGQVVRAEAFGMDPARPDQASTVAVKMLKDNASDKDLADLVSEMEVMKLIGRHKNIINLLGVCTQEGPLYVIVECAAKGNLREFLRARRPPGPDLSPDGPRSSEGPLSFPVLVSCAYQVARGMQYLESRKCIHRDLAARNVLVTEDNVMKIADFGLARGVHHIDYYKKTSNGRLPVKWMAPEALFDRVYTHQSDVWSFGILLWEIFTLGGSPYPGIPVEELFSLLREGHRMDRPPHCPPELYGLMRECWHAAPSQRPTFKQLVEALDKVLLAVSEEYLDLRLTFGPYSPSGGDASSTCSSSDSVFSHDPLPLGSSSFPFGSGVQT

MET = target: T7, MET (Homo sapiens, UniProt P08581); experiment: MaMTH-DS assay, MET bait with Shc1 prey; format: cell-based
T7 construct: expressed in transfected cells
T7 sequence (P08581 308-1390 limits assumed): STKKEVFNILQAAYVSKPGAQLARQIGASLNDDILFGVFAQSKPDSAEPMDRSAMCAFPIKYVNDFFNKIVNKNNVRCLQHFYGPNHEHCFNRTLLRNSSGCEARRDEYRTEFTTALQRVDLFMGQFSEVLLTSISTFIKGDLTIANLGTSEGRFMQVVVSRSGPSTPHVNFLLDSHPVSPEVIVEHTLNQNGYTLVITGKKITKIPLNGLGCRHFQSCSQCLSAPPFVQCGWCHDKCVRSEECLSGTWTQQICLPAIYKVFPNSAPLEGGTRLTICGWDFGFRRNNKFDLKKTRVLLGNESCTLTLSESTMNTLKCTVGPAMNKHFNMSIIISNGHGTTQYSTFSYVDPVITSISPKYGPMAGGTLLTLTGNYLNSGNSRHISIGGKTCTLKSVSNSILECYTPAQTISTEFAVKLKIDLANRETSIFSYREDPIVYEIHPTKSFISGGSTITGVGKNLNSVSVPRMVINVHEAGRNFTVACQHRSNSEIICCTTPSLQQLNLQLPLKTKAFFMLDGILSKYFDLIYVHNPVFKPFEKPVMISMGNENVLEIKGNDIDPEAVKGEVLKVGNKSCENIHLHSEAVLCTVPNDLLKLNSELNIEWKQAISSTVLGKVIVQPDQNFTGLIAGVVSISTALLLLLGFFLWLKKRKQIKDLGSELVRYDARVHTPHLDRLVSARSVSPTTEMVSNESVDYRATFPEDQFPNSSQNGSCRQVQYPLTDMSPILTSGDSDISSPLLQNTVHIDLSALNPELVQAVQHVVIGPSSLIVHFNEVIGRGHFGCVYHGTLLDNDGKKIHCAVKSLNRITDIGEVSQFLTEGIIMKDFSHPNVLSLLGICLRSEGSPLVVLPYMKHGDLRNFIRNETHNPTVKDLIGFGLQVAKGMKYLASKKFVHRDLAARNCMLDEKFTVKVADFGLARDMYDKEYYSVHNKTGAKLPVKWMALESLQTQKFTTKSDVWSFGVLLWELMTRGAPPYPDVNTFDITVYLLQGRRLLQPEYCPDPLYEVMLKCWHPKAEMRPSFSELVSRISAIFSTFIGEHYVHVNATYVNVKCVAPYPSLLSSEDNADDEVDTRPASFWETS
T7 sequence (P08581 25-307 partner limits assumed): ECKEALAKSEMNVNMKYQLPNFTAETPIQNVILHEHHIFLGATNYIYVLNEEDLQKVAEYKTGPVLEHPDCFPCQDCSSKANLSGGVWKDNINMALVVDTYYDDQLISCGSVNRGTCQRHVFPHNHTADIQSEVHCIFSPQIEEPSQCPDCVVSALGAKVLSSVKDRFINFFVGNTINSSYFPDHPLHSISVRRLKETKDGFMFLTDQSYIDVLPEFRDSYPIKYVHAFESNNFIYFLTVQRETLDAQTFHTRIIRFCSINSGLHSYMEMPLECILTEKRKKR

[12] = tested on: reporter cells expressing ALK bait; experiment: Viability of reporter cells expressing ALK bait; format: cell-based

Compound: C/C(=C\c1ccc(Cl)cc1)[N+](=O)[O-] [Compound 5238658]
- Average Percent (EGFR-L858R-T790M-C797S): 0.2%
- WT > 50% Inhibition (EGFR-WT): YES
- Average Percent (EGFR-WT): 0.9%

Compound: C[C@@H](Oc1cc(-c2cnn(C3CCNCC3)c2)cnc1N)c1c(Cl)ccc(F)c1Cl [Crizotinib]
- reporter cell viability [1]: not due to a loss in cell viability

Compound: C=CC(=O)Nc1cccc(C)c1Nc1ncc2cc(-c3c(Cl)c(OC)cc(OC)c3Cl)ccc2n1 [BLU9931]
- reporter cell viability [2]: no effect

Compound: CCc1nc(C(N)=O)c(Nc2ccc(N3CCC(N4CCN(C)CC4)CC3)c(OC)c2)nc1NC1CCOCC1 [Gilteritinib, 6-ethyl-3-[3-methoxy-4-[4-(4-methylpiperazin-1-yl)piperidin-1-yl]anilino]-5-(oxan-4-ylamino)pyrazine-2-carboxamide]
- phosphorylation and/or expression of EGFR and downstream signaling molecules [3]: inhibits EGFR activation and downstream signaling
- interaction / complex formation with Shc1 (MaMTH, words) (EGFR L858R/T790M): inhibited complex formation
- viability of PC9 organoids [4]: dose-dependent reduction
- effect on kinase activity (EGFR ex19del/T790M/C797S): most robust inhibition
- effect on kinase activity (EGFR ex19del-T790M): preferentially inhibits
- interaction / complex formation with Shc1 (MaMTH, words) (EGFR-WT; EGFR WT bait): not
- cell viability in combination with compound 5213777 [5]: increased effect
- cell viability in combination with Panitumumab [5]: significantly enhanced

Compound: CO[C@@H]1[C@H](N(C)C(=O)c2ccccc2)C[C@H]2O[C@]1(C)n1c3ccccc3c3c4c(c5c6ccccc6n2c5c31)C(=O)NC4 [Midostaurin, N-[(9S,10R,11R,13R)-2,3,10,11,12,13-hexahydro-10-methoxy-9-methyl-1-oxo-9,13-epoxy-1H,9H-diindolo[1,2,3-gh:3′,2′,1′-lm]pyrrolo[3,4-j][1,7]benzodiazonin-11-yl]-N-methylbenzamide]
- effect on kinase activity (wild-type EGFR): no significant effect
- effect on kinase activity (EGFR double mutants): inhibits the kinase activity
- phosphorylation and/or expression of EGFR and downstream signaling molecules [3]: inhibitory effect
- caspase 3 and 7 activity (CFBE cells): not observed
- caspase 3 and 7 activity [6]: dose-dependent activation
- viability of PC9 organoids [4]: dose-dependent reduction
- cell viability ([7]; compound alone, 72 hours): robust, dose-dependent reduction
- cell viability in combination with anti-EGFR antibody [7]: Enhanced effect
- phosphorylation and/or expression of EGFR and downstream signalling molecules [8]: strongest response
- effect on kinase activity (EGFR ex19del/T790M/C797S): strongly inhibited
- phosphorylation and/or expression of EGFR and downstream signalling molecules [9]: strongest response
- Average Percent (EGFR-L858R-T790M-C797S): 10.5%
- Average Percent (EGFR-WT): 129.3%
- cell viability in combination with compound 5213777 [5]: increased effect
- cell viability in combination with Panitumumab [5]: Enhanced effects
- cell viability ([10]; compound alone, 72 hours): robust, dose-dependent reduction
- cell viability in combination with anti-EGFR antibody [10]: Enhanced effect

Compound: O=c1c(Cl)c(Cl)cnn1Cc1ccccc1 [Compound 5357830]
- Average Percent (EGFR-L858R-T790M-C797S): 0.9%
- WT > 50% Inhibition (EGFR-WT): YES
- Average Percent (EGFR-WT): 6.2%

Compound: C=CC(=O)Nc1cc(Nc2nccc(-c3cn(C)c4ccccc34)n2)c(OC)cc1N(C)CCN(C)C [Osimertinib]
- caspase 3 and 7 activity [6]: not observed
- viability of PC9 organoids [4]: not observed
- cell viability in combination with anti-EGFR antibody [7]: does not cause enhanced reduction
- cell viability in combination with anti-EGFR antibody ([7]; listed as AZD9291): no such enhancement was evident
- cell viability in combination with anti-EGFR antibody [10]: does not cause enhanced reduction
- cell viability in combination with anti-EGFR antibody ([10]; listed as AZD9291): no such enhancement was evident

Compound: COc1cc2c(Oc3ccc(NC(=O)C4(C(=O)Nc5ccc(F)cc5)CC4)cc3F)ccnc2cc1OCCCN1CCOCC1 [Foretinib]
- reporter cell viability [11]: unaffected
- MaMTH-DS reporter activity (AXL): strongly reduced, in a dose-dependent manner

Compound: C#Cc1cccc(Nc2ncnc3cc(OCCOC)c(OCCOC)cc23)c1 [Erlotinib]
- MaMTH-DS reporter activity (AXL): not
- MaMTH-DS reporter activity (FGFR4): not
- MaMTH-DS interaction with Shc1 (MET): not

Compound: COc1cc(N2CCC(N3CCN(C)CC3)CC2)ccc1Nc1ncc(Cl)c(Nc2ccccc2P(C)(C)=O)n1 [Brigatinib]
- reporter cell viability [12]: unaffected

Compound: CC1CC(Nc2ccccc2)c2ccccc2N1C(=O)c1cccs1 (stereo not drawn) [Compound 5304079]
- Average Percent (EGFR-L858R-T790M-C797S): 11.7%
- WT > 50% Inhibition (EGFR-WT): YES
- Average Percent (EGFR-WT): 21.5%

Source: patent US11123330B2, “Methods and compositions for inhibiting mutant EGFR signaling” (The Governing Council of the University of Toronto, priority 2017, dated 2021)
